In US20070065805A1, “Cell migration assay” (GE Healthcare Bio-Sciences Corp., priority 2005, published 2007):
“Also recorded” adds a separate entry of the source.

Legend:
neutrophil TEM = assay: Neutrophil transendothelial migration (TEM) assay, 96-well collagen gel/HUVEC monolayer; type: cell-based, human; conditions: for Inhibition of neutrophil TEM: neutrophil pre-treated with inhibitor (1, 10-phenathronoline 12-1000 μM) for 0.5 hour, inhibitor present throughout the TEM assay, migrated cells counted at Z: 60 μm (FIG. 10)
Protocol: (§1) A 96-well plate (ViewPlate™, PerkinElmer Life and Analytical Sciences) was set on ice and 40 μl of gel (2.5 mg/ml) was dispensed into each well using stepper repeat pipette (500 or 1000 tip). The plate was spun at 1,500 rpm for 2 min at 4° C. The gel was solidified at 37° C. in a CO2-free incubator to establish a thick layer (200 μm) of collagen gel onto a well of 96-well plate. The following TEM assays were performed using collagen gel prepared in this manner.
The layer of collagen gel in each well was coated with 200 μl of 1 μg/ml human fibronectin (BD Biosciences) in serum-free EGM-2 medium for 1 hour at room temperature. After removal of the fibronectin containing-medium, HUVEC cells (CAMBREX) were seeded onto the gel and cultured in the EGM-2 medium for 3 days, at 37° C., and at a concentration of 40,000 cells/well. The cells were chosen from early passage (3rd to 4th), 70-80% confluent HUVEC cell cultures. The day before the assay, the HUVEC culture medium was replaced with either fresh EGM-2 medium alone, or the fresh EGM-2 medium containing 10 ng/ml IL-1 β (or TNF-α, or other chemoattractants). The mixture was incubated overnight to stimulate TEM.
Neutrophil or peripheral blood mononuclear cells (PBMC) were freshly isolated from blood Buffy coat. Briefly, RBC were removed using dextran sedimentation. Then PBMC were isolated by Ficoll-Hypaque centrifugation. Neutrophils were purified by hypotonic lysis of remaining RBC in the pellet of Ficoll-Hypaque centrifugation. The cells were labelled with CellTracker™ Green, by incubation in 0.5 to 1 μm dye in RPMI for 45 min at 37° C. The dye containing RPMI was removed and the cells washed once with serum-free RPMI medium. The cells were re-suspended in RPMI containing 0.2% HAS (assay medium) at 2.5×10^6 cells/ml.
On the assay day, the culture medium for the HUVEC cell culture was removed and the HUVEC monolayer washed 2 times with PBS and once with assay medium (0.2% of HAS in RPMI). 500,000 (200 μl) neutrophil or PBMC, which were CellTracker™ Green labelled, were placed on top of the HUVEC monolayer in each well. The assay was incubated further at 37° C. The length of time for the incubation is primary cell type dependent. For neutrophil, incubation time is within 2 hours and for PBMC, from 6 to 10 hours may be required.
(§2) After the required incubation time, images of neutrophil/PBMC cells which had migrated below the HUVEC layer were acquired. Often, it is sufficient to acquire images at a single Z position and quantify the number of migrated cells in the gel at targeted Z position. As an example, images at the 120 μm Z plane were quantified using the Z-slicing feature of IN Cell Analyzer 3000 (GE Healthcare). Images were analysed using the Object Intensity analysis module. The experiments were repeated multiple times, such that each data point—in the Figures—represents mean plus/minus standard deviation of 6 replicate wells, one Z plane of image/well.
Prior to the TEM assay, neutrophil were pre-treated with 1, 10-phenathronoline, a MMP-9 inhibitor (12-1000 μM) for 0.5 hour. The inhibitor was continuously present throughout the TEM assay. […] Each data point in FIG. 10 represents mean plus/minus SD of 6 replicate wells, one image/well at Z: 60 μm.

PBMC TEM = assay: PBMC transendothelial migration (TEM) assay, 96-well collagen gel/HUVEC monolayer; type: cell-based, human; conditions: HUVEC incubated overnight with 10 ng/ml IL-1 β
Protocol: as §1
The layer of collagen gel in each well was coated with 200 μl of 1 μg/ml human fibronectin (BD Biosciences) in serum-free EGM-2 medium for 1 hour at room temperature. After removal of the fibronectin containing-medium, HUVEC cells (CAMBREX) were seeded onto the gel and cultured in the EGM-2 medium for 3 days, at 37° C., and at a concentration of 40,000 cells/well. The cells were chosen from early passage (3rd to 4th), 70-80% confluent HUVEC cell cultures. […]
as §2, with “The experiments were repeated multiple times, such that each data point—in the Figures—represents mean plus/minus standard deviation of 6 replicate wells, one Z plane of image/well.” left out

## c1cnc2c(c1)ccc1cccnc12 [1, 10-phenathronoline, reference compound]
Neutrophil TEM
  Inhibition of neutrophil TEM: inhibits neutrophil TEM; also recorded: Inhibition of neutrophil TEM

## C[C@H]1c2cccc(O)c2C(O)=C2C(=O)[C@]3(O)C(O)=C(C(N)=O)C(=O)[C@@H](N(C)C)[C@@H]3[C@@H](O)[C@@H]21 [doxycyclin, reference compound]
Neutrophil TEM
  Inhibition of neutrophil TEM: showed to inhibit TEM

## Interleukin-1-beta [IL-1β]
Neutrophil TEM; HUVEC incubated overnight with 10 ng/ml IL-1 β
  Stimulation of neutrophil TEM: potentiate transendothelial migration of both cell types
Neutrophil TEM; migrated cells quantified at Z: 120 μm, FIG. 7
  Time for neutrophil TEM to reach a significant signal to noise ratio (IL-1β stimulated vs. non-stimulated): 0.5 to 2 h
PBMC TEM
  Stimulation of PBMC TEM: potentiate transendothelial migration of both cell types

## Interleukin-8 [IL-8]
Neutrophil TEM; collagen gel pre-soaked with culture medium containing IL-8 at 200 ng/ml for 4 hours
  Effect of IL-8 soaking on neutrophil TEM: increase of neutrophil TEM; also recorded: generates a TEM effect similar to that of IL-1 β activation of HUVEC
